Test results: patent CN117771387A, “糖响应性复合物及其制备方法和应用” (priority 2022, dated 2024)

What was measured:
[1] = system: AKT信号磷酸化; assay: In vitro activity of Glu-insulin: AKT phosphorylation in HepG2 cells (western blot); assay type: cell-based; conditions: 10 min, 0-100nM
[2] = system: 1型糖尿病小鼠; assay: Blood glucose lowering by Glu-insulin in STZ-induced type 1 diabetic mice; assay type: in vivo, C57BL/6小鼠; conditions: s.c., insulin-equivalent dose 1.5mg/kg

Glu-insulin: Recombinant human insulin modified with gluconic acid at A1 (N-terminus of the α chain) [葡萄糖酸基胰岛素]
Activity on AKT phosphorylation compared with recombinant human insulin [1]: 显示出与未修饰的重组人胰岛素相似的活性 | Blood glucose lowering effect compared with recombinant human insulin [2]: 仍有与重组人胰岛素类似的降糖效果
